# Measured values reported in patent US20240192237A1 (curantis UG, priority 2021, published 2024).
# Key:
# [1] = system: patients with schizophrenia; assay: PANSS assessment in clinical trials CBD-CT1 and CBD-PT; type: in vivo; conditions: for PANSS Positive Score: baseline 22.9 ± 4.3; for PANSS Negative Score: baseline 22.5 ± 6.0; for PANSS General Score: baseline 45.0 ± 8.2; for PANSS Total Score: baseline 90.4 ± 14.1
# Excerpt: The Ethics Committee of the Faculty of Medicine of University of Cologne approved the clinical trial with application number 00-074 on Aug. 6, 2000.
# All randomized patients complied with all inclusion and exclusion criteria: age between 18 and 50, male and female, persisting inpatient hospitalization, specific DSM-IV diagnoses, initial Brief Psychiatric Rating Scale (BPRS) score≥36, understanding of the study objectives and the course of the study, legal capacity, no pregnancy or lactation phase, reliable contraception.
# CBD was administered as an oral dose in a capsule formulation. The dose was increased during the first week from 200 mg/d to 800 mg/d (4×200 mg) and remained at this level for the rest of the study period. Due to serious unwanted effects, the dose could be reduced irreversibly to 600 mg/d starting with day 15. […] Dose applications, blood sampling, and assessment of PANSS followed the time schedule presented below. Additional treatment with 7.5 mg lorazepam per day during the whole study period was permitted.
# On 28 Jul. 2005 this clinical trial with application number 04-153 was approved by the Ethics Committee of the Faculty of Medicine of University of Cologne.
# Eighteen patients with a diagnosis of schizophrenia or schizophreniform disorder should be included in this trial per protocol. Because dropouts had to be replaced by a new patient a total number of 29 patients was randomized from February 2006 to June 2008. All randomized patients complied with all inclusion and exclusion criteria: age between 18 and 65, male and female, specific DSM-IV diagnoses, initial BPRS score≥36, no pregnancy or lactation phase, reliable contraception, no lack of accountability, no other relevant interferences, no treatment with depot-antipsychotics during the last three months, no severe internal or neurological illness, no QTc prolongation, no acute suicidality nor endangerment of others by the patient. […] Treatment lasted four weeks: the first period with two weeks of CBD or placebo treatment was followed by a second period with a two-week treatment of placebo or CBD, respectively. There was no washout period between the two treatments. […] The dose could be reduced irreversibly to 400 mg/d in case of serious unwanted effects. […] The PANSS was applied at baseline and day 14 and 28. Dose applications, blood sampling, and assessment of PANSS followed the time schedule presented below. Additional treatment with 5.0 mg lorazepam per day during the whole study period was permitted.
# The Positive and Negative Syndrome Scale (PANSS) is a psychopathological scale and was developed to assess the symptom severity in patients with schizophrenia. It was first described by Kay et al. in 1987 (Kay S R, Fiszbein A, Opler L A. “The positive and negative syndrome scale (PANSS) for schizophrenia”. Schizophrenia bulletin. 1987; 13(2):261-276.) and includes 30 questions which are a combination of 18 items of the BPRS and 12 items of the Psychopathology Rating Schedule ([…]) (see Leucht S, Kane J M, Kissling W, Hamann J, Etschel E, Engel R R. “What does the PANSS mean?” Schizophrenia research. 2005; 79(2-3):231-238.) All questions are rated on a 7-point scale from 1=absence of symptoms to 7=extremely distinct symptoms. Therefore, the PANSS total score (sum score of all 30 items) can range from 30 to 210. Here applies: the lower the PANSS score the better/healthier is the patient.
# The positive scale contains delusion, disorganized thoughts, hallucination, excitement, grandiosity, suspiciousness/persecution, and animosity. Blunted affect, emotional withdrawal, poor rapport, passive/apathetic social withdrawal, difficulty in abstract thinking, stereotyped thinking, lack of spontaneity, and flow of conversation are part of the negative scale. […]
# [2] = system: patients with schizophrenia; assay: Estimated correlation between CBD plasma concentration and percentage change of PANSS score at day 14; type: in vivo; conditions: for Estimated CBD plasma concentration, PANSS_N, average / Estimated CBD plasma concentration, PANSS_P, average / Estimated CBD plasma concentration, PANSS_T, average / Estimated CBD plasma concentration, PANSS_G, average: two weeks after commencement
# Excerpt: In general, it is expected that a percentage change of 50% of the PANSS score(s) vis-à-vis the baseline score after four to six weeks of treatment indicates a significant improvement of the PANSS score(s) (see Correll C. U., “Quantifying clinical relevance in the treatment of schizophrenia, Clinical Therapeutics”, Vol. 33, Number 12, 2011, B16-B39).
# Since the PANSS score(s) cover symptoms experienced or observed during the preceding 7 days, the minimum required observation period is one week. To avoid an overlap to the observation of initial symptoms, a treatment period of 2 weeks is considered a minimum reliable period. Therefore, we analyzed the treatment effect after 2 weeks of treatment. Due to the analyzed shortened treatment period a percentage change of 25% of the PANSS score(s) vis-à-vis the baseline score indicates a significant improvement of the PANSS score(s).
smiles,measurement,setting,value
"C=C(C)[C@@H]1CCC(C)=C[C@H]1c1c(O)cc(CCCCC)cc1O [CBD, cannabidiol]",PANSS Positive Score,"[1]; Day 14, mean, SD 4.5, N 36",18.9
same,PANSS Negative Score,"[1]; Day 14, mean, SD 5.6, N 36",19.0
same,PANSS General Score,"[1]; Day 14, mean, SD 9.6, N 36",38.9
same,PANSS Total Score,"[1]; Day 14, mean, SD 17.0, N 36 (CT1 17|PT 19), oral CBD capsules 800 mg/d (CT1) or 600 mg/d (PT)",76.9
same,PANSS Positive Score,"[1]; Day 28, mean, SD 5.4, N 24",16.9
same,PANSS Negative Score,"[1]; Day 28, mean, SD 6.2, N 24",16.1
same,PANSS General Score,"[1]; Day 28, mean, SD 13.1, N 24",35.9
same,PANSS Total Score,"[1]; Day 28, mean, SD 23.2, N 24 (CT1 14|PT 10)",68.9
same,"Estimated CBD plasma concentration, PANSS_N, average","[2]; PANSS delta 10% vs baseline, range (12.9; 28.9)",17.8 µg/L
same,"Estimated CBD plasma concentration, PANSS_P, average","[2]; PANSS delta 10% vs baseline, range (13.0; 35.7)",19.1 µg/L
same,"Estimated CBD plasma concentration, PANSS_T, average","[2]; PANSS delta 10% vs baseline, range (13.4; 25.5)",17.5 µg/L
same,"Estimated CBD plasma concentration, PANSS_N, average","[2]; PANSS delta 20% vs baseline, range (25.7; 57.7)",35.6 µg/L
same,"Estimated CBD plasma concentration, PANSS_P, average","[2]; PANSS delta 20% vs baseline, range (26.0; 71.4)",38.2 µg/L
same,"Estimated CBD plasma concentration, PANSS_G, average","[2]; PANSS delta 20% vs baseline, range (26.6; 49.2)",34.5 µg/L
same,"Estimated CBD plasma concentration, PANSS_T, average","[2]; PANSS delta 20% vs baseline, range (26.7; 50.9)",35.0 µg/L
same,"Estimated CBD plasma concentration, PANSS_N, average","[2]; PANSS delta 25% vs baseline, range (32.2; 72.1)",44.5 µg/L
same,"Estimated CBD plasma concentration, PANSS_P, average","[2]; PANSS delta 25% vs baseline, range (32.5; 89.3)",47.7 µg/L
same,"Estimated CBD plasma concentration, PANSS_G, average","[2]; PANSS delta 25% vs baseline, range (33.2; 61.5)",43.1 µg/L
same,"Estimated CBD plasma concentration, PANSS_T, average","[2]; PANSS delta 25% vs baseline, range (33.4; 63.7)",43.8 µg/L
same,"Estimated CBD plasma concentration, PANSS_N, average","[2]; PANSS delta 30% vs baseline, range (38.6; 86.6)",53.4 µg/L
same,"Estimated CBD plasma concentration, PANSS_P, average","[2]; PANSS delta 30% vs baseline, range (39.1; 107.1)",57.2 µg/L
same,"Estimated CBD plasma concentration, PANSS_G, average","[2]; PANSS delta 30% vs baseline, range (39.8; 73.8)",51.8 µg/L
same,"Estimated CBD plasma concentration, PANSS_T, average","[2]; PANSS delta 30% vs baseline, range (40.1; 76.4)",52.6 µg/L
same,"Estimated CBD plasma concentration, PANSS_N, average","[2]; PANSS delta 40% vs baseline, range (51.5; 115.4)",71.2 µg/L
same,"Estimated CBD plasma concentration, PANSS_P, average","[2]; PANSS delta 40% vs baseline, range (52.1; 142.8)",76.3 µg/L
same,"Estimated CBD plasma concentration, PANSS_G, average","[2]; PANSS delta 40% vs baseline, range (53.1; 98.4)",69.0 µg/L
same,"Estimated CBD plasma concentration, PANSS_T, average","[2]; PANSS delta 40% vs baseline, range (53.4; 101.9)",70.1 µg/L
same,"Estimated CBD plasma concentration, PANSS_N, average","[2]; PANSS delta 50% vs baseline, range (64.3; 144.3)",89.0 µg/L
same,"Estimated CBD plasma concentration, PANSS_P, average","[2]; PANSS delta 50% vs baseline, range (65.1; 178.5)",95.4 µg/L
same,"Estimated CBD plasma concentration, PANSS_G, average","[2]; PANSS delta 50% vs baseline, range (66.4; 123.0)",86.3 µg/L
same,"Estimated CBD plasma concentration, PANSS_T, average","[2]; PANSS delta 50% vs baseline, range (66.8; 127.3)",87.6 µg/L
same,"Estimated CBD plasma concentration, PANSS_P, average","[2]; PANSS delta 60% vs baseline, range (78.1; 214.2)",114.5 µg/L
same,"Estimated CBD plasma concentration, PANSS_G, average","[2]; PANSS delta 60% vs baseline, range (79.7; 147.6)",103.5 µg/L
same,"Estimated CBD plasma concentration, PANSS_T, average","[2]; PANSS delta 60% vs baseline, range (80.1; 152.8)",105.1 µg/L
same,"Estimated CBD plasma concentration, PANSS_N, average","[2]; PANSS delta 70% vs baseline, range (90.1; 202.0)",124.6 µg/L
same,"Estimated CBD plasma concentration, PANSS_P, average","[2]; PANSS delta 70% vs baseline, range (91.1; 249.9)",133.6 µg/L
same,"Estimated CBD plasma concentration, PANSS_G, average","[2]; PANSS delta 70% vs baseline, range (93.0; 172.2)",120.8 µg/L
same,"Estimated CBD plasma concentration, PANSS_T, average","[2]; PANSS delta 70% vs baseline, range (93.5; 178.3)",122.6 µg/L
same,"Estimated CBD plasma concentration, PANSS_N, average","[2]; PANSS delta 75% vs baseline, range (96.5; 216.4)",133.5 µg/L
same,"Estimated CBD plasma concentration, PANSS_P, average","[2]; PANSS delta 75% vs baseline, range (97.6; 267.8)",143.1 µg/L
same,"Estimated CBD plasma concentration, PANSS_G, average","[2]; PANSS delta 75% vs baseline, range (99.6; 184.5)",129.4 µg/L
same,"Estimated CBD plasma concentration, PANSS_T, average","[2]; PANSS delta 75% vs baseline, range (100.1; 191.0)",131.4 µg/L
same,"Estimated CBD plasma concentration, PANSS_N, average","[2]; PANSS delta 80% vs baseline, range (102.9; 230.8)",142.4 µg/L
same,"Estimated CBD plasma concentration, PANSS_P, average","[2]; PANSS delta 80% vs baseline, range (104.1; 285.6)",152.6 µg/L
same,"Estimated CBD plasma concentration, PANSS_G, average","[2]; PANSS delta 80% vs baseline, range (106.3; 196.8)",138.0 µg/L
same,"Estimated CBD plasma concentration, PANSS_T, average","[2]; PANSS delta 80% vs baseline, range ([…]; 203.7)",140.2 µg/L
same,"Estimated CBD plasma concentration, PANSS_N, average","[2]; PANSS delta 90% vs baseline, range (115.8; 259.7)",160.2 µg/L
same,"Estimated CBD plasma concentration, PANSS_P, average","[2]; PANSS delta 90% vs baseline, range (117.2; 321.3)",171.7 µg/L
same,"Estimated CBD plasma concentration, PANSS_G, average","[2]; PANSS delta 90% vs baseline, range (119.5; 221.4)",155.3 µg/L
same,"Estimated CBD plasma concentration, PANSS_T, average","[2]; PANSS delta 90% vs baseline, range (120.2; 229.2)",157.7 µg/L
same,"Estimated CBD plasma concentration, PANSS_N, average","[2]; PANSS delta 100% vs baseline, range (128.7; 288.5)",178.0 µg/L
same,"Estimated CBD plasma concentration, PANSS_P, average","[2]; PANSS delta 100% vs baseline, range (130.2; 357.0)",190.8 µg/L
same,"Estimated CBD plasma concentration, PANSS_G, average","[2]; PANSS delta 100% vs baseline, range (132.8; 246.0)",172.5 µg/L
same,"Estimated CBD plasma concentration, PANSS_T, average","[2]; PANSS delta 100% vs baseline, range (133.5; 254.6)",175.2 µg/L
same,CBD plasma concentration that results in the required percentage change (25%) of the PANSS score(s),[2]; after 2 weeks of treatment,at least 25 μg/l
